From patent US9963446B2, “Oxepan-2-yl-pyrazol-4-yl-heterocyclyl-carboxamide compounds and methods of use” (Genentech, Inc., priority 2014, dated 2018)

What was measured:
PIM1 = PIM1 (Homo sapiens (Human), UniProt P11309); test: Pim kinase binding activity (PIM1 LC3K Ki); assay type: biochemical; details: 20 pM PIM1, 10 μM ATP, 90 minutes
Procedure: PIM-1, -2, and -3 enzymes were generated as fusion proteins expressed in bacteria and purified by IMAC column chromatography (Sun, X., Chiu, J. F., and He, Q. Y. (2005) Expert Rev. Proteomics, 2:649-657). A fluorescent-labeled Pim-specific peptide substrate, was custom synthesized by American Peptide Company (Sunnyvale, Calif.). Reaction Buffer contained 10 mM HEPES, pH 7.2, 10 mM MgCl2, 0.01% Tween 20, 2 mM DTT. Termination Buffer contained 190 mM HEPES, pH 7.2, 0.015% Brij-35, 0.2% Coating Reagent 3 (Caliper Life Sciences, Hopkinton, Mass.), 20 mM EDTA. Separation Buffer contained 100 mM HEPES, pH 7.2, 0.015% Brij-35, 0.1% Coating Reagent 3, 1:200 Coating Reagent 8 (Caliper Life Sciences, Hopkinton, Mass.), 10 mM EDTA and 5% DMSO.
PIM reactions were carried out in a final volume of 10 μL per well in a 384-well plate. A standard enzymatic reaction, initiated by the addition of 5 μL 2×ATP and test compound to 5 μL of 2× enzyme and FAM-peptide, contained 20 pM PIM1, 50 pM PIM2, or 55 pM PIM3, 1 μM FAM-peptide, and 10 μM ATP, in Reaction Buffer. After 90 minutes of incubation at room temperature, the phosphorylation reaction was stopped by the addition of 10 μL Termination Buffer. The product and substrate in each independent reaction were separated on a 12-sipper microfluidic chip (Caliper Life Sciences, Hopkinton, Mass.) run on a Caliper LC3000® (Caliper Life Sciences, Hopkinton, Mass.). The separation of product and substrate was optimized by choosing voltages and pressure using Caliper's Optimizer software (Hopkinton, Mass.). The separation conditions used a downstream voltage of −500V, an upstream voltage of −2150V, and a screening pressure of −1.2 psi. The product and substrate fluorophore were excited at 488 nm and detected at 530 nm. Substrate conversion was calculated from the electropherogram using HTS Well Analyzer software (Caliper Life Sciences, Hopkinton, Mass.). Ki values for the test compound were calculated. See Table 1 for representative PIM1 LC3K Ki in micromolar values of exemplary compounds.

BaF3 parental cells = test: In vitro cell proliferation, BaF3 parental line + IL3; assay type: cell-based, murine; details: Mus musculus; BaF3 parental line with mIL-3, incubated overnight; read-out: Prolif BaF3 + IL3 (IC50)
Procedure: (§1) BaF3 parental line was obtained from the DSMZ repository. BaF3 lines transfected with PIM1 or PIM2 were generated. Mouse IL-3 was purchased from R&D Systems. G418 was purchased from Clontech. Media for BaF3 parental line contained RPMI, 10% FBS, 2 mM L-Glutamine, 2 ng/mL mIL-3. Media for BaF3 PIM1 & 2 lines contained RPMI, 10% FBS, 2 mM L-Glutamine, […]. Media for MM1.S (multiple myeloma cells) line contained RPMI, 10% FBS, 2 mM L-Glutamine.
(§2) BaF3, a murine interleukin-3 dependent pro-B cell line, parental cells, BaF3 PIM1 cells, BaF3 PIM2 cells, and MM1.S (multiple myeloma) cells were seeded at 2 k/well, 5 k/well, 5 k/well, and 10 k/well respectively, in a 384-well plate, at 45 μL/well. Test compound was added at 5 μL/well. BaF3 cells (parental and transfected) were incubated overnight, while MM1.S cells were incubated for 72 hours at 37° C., 5% CO2. CELL TITER GLO® Reagent (Promega) was added at 50 μL/well, the plates were incubated for 30 minutes, and their luminescence read on an HT Analyst. IC50/EC50 values for the test compound were calculated.

BaF3 PIM1 cells = test: In vitro cell proliferation, BaF3 transfected with PIM1; assay type: cell-based, murine; details: Mus musculus; BaF3 PIM1 line, incubated overnight; read-out: Prolif BaF3 PIM1 (IC50)
Procedure: as §1, §2

[1] = tested on: MM1.S (multiple myeloma) cells; test: In vitro cell proliferation, MM1.S (CELL TITER GLO); assay type: cell-based; details: Homo sapiens, 72 hours, read-out: Prolif MM1S ATP (EC50)
Procedure: as §1, §2

Sequence of PIM1 (P11309 whole entry, the tested form may be a part): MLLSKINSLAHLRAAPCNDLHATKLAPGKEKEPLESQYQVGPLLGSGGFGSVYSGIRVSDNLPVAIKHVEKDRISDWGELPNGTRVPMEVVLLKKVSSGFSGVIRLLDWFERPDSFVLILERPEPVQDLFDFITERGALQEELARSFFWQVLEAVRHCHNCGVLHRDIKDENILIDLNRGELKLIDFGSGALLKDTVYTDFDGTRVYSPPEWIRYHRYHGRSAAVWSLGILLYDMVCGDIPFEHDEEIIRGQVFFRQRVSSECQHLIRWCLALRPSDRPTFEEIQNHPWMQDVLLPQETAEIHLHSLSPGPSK

| Compound | Ki (PIM1) [nM] | IC50 (BaF3 PIM1 cells) [nM] | EC50 [1] [nM] | IC50 (BaF3 parental cells) [nM] |
| --- | --- | --- | --- | --- |
| N[C@H]1CC[C@H](c2c(NC(=O)c3ccc(F)c(-c4c(F)cccc4F)n3)cnn2C2CC2)OC[C@@H]1F [Example 114, N-[5-[(2R,5S,6R)-5-amino-6-fluoro-oxepan-2-yl]-1-cyclopropyl-pyrazol-4-yl]-6-(2,6-difluorophenyl)-5-fluoro-pyridine-2-carboxamide] | 0.173 | 75.1 | 443 | 10100 |
| CO[C@H]1[C@H](N)CC[C@@H](c2c(NC(=O)c3csc(-c4c(F)cccc4F)n3)cnn2C)O[C@H]1C [Example 117, N-[5-[(2S,5R,6S,7S)-5-amino-6-methoxy-7-methyl-oxepan-2-yl]-1-methyl-pyrazol-4-yl]-2-(2,6-difluorophenyl)thiazole-4-carboxamide] | 0.0325 | 14 | 53.9 | 6900 |
| CO[C@H]1[C@H](N)CC[C@@H](c2c(NC(=O)c3csc(-c4c(F)cccc4F)n3)cnn2C)O[C@@H]1C [Example 118, N-(5-((2S,5R,6S,7R)-5-amino-6-methoxy-7-methyloxepan-2-yl)-1-methyl-1H-pyrazol-4-yl)-2-(2,6-difluorophenyl)thiazole-4-carboxamide] | 0.006 | 8.95 | 67.3 | 2500 |
| Cn1ncc(NC(=O)c2csc(-c3cccc4cccnc34)n2)c1[C@@H]1CC[C@@H](N)[C@H](F)CO1 [Example 120, N-[5-[(2S,5R,6S)-5-amino-6-fluoro-oxepan-2-yl]-1-methyl-pyrazol-4-yl]-2-(8-quinolyl)thiazole-4-carboxamide] | 1.79 | 563 | 228 | 2300 |

More lines, main results first:

| Ki (PIM1) [nM] | IC50 (BaF3 PIM1 cells) [nM] | EC50 [1] [nM] | Compound | IC50 (BaF3 parental cells) [nM] |
| --- | --- | --- | --- | --- |
| 0.004 | 118 | 202 | Cn1ncc(NC(=O)c2csc(-c3c(F)cc4c(c3F)OCC[C@H]4O)n2)c1[C@@H]1CC[C@@H](N)[C@H](F)CO1 [Example 112, N-(5-((2S,5R,6S)-5-amino-6-fluorooxepan-2-yl)-1-methyl-1H-pyrazol-4-yl)-2-((R)-6,8-difluoro-4-hydroxychroman-7-yl)thiazole-4-carboxamide] | > 25000 |
| 0.03 | 327 | 906 | Cn1ncc(NC(=O)c2csc(-c3n[nH]c4c3CCC4)n2)c1[C@@H]1CC[C@@H](N)[C@H](F)CO1 [Example 113, N-[5-[(2S,5R,6S)-5-amino-6-fluoro-oxepan-2-yl]-1-methyl-pyrazol-4-yl]-2-(1,4,5,6-tetrahydrocyclopenta[c]pyrazol-3-yl)thiazole-4-carboxamide] | 13600 |
| 0.043 | 49.2 | 407 | COc1cnc(-c2nc(C(=O)Nc3cnn(C)c3[C@@H]3CC[C@@H](N)[C@H](F)CO3)cs2)c(C)c1 [Example 119, N-[5-[(2S,5R,6S)-5-amino-6-fluoro-oxepan-2-yl]-1-methyl-pyrazol-4-yl]-2-(5-methoxy-3-methyl-2-pyridyl)thiazole-4-carboxamide] | 2900 |
| 0.0049 | 12.2 | 376 | C[C@@H]1O[C@H](c2c(NC(=O)c3csc(-c4c(F)cccc4F)n3)cnn2C)CC[C@@H](N)[C@H]1F [Example 121, N-(5-((2S,5R,6R,7S)-5-amino-6-fluoro-7-methyloxepan-2-yl)-1-methyl-1H-pyrazol-4-yl)-2-(2,6-difluorophenyl)thiazole-4-carboxamide] | 14200 |
| 0.025 | 184 | 600 | Cn1ncc(NC(=O)c2csc(-c3cn4ccnc4cn3)n2)c1[C@@H]1CC[C@@H](N)[C@H](F)CO1 [Example 122, N-(5-((2S,5R,6S)-5-amino-6-fluorooxepan-2-yl)-1-methyl-1H-pyrazol-4-yl)-2-(imidazo[1,2-a]pyrazin-6-yl)thiazole-4-carboxamide] | 12500 |
